Measured values as given in patent US10913720B2, “Benzyloxypyridylcyclopropanecarboxylic acids, pharmaceutical compositions and uses thereof” (Boehringer Ingelheim International GmbH, priority 2017, dated 2021).
pEC50: −log10 of the molar value.

biological target: human GPR40 receptor (Homo sapiens, UniProt O14842); assay: IP1 accumulation measurements using the IPOne assay system; type: cell-based; details: 1321N1 cells stably expressing human GPR40; 1 h stimulation at 37° C.
Experimental: IP1 accumulation measurements using the IPOne assay system—1321N1 cells stably expressing human GPR40 receptor (Euroscreen, Belgium) are seeded 24 h before the assay in white 384-well plates in culture medium containing 10% FCS, 1% Na-Pyruvate and 400 μg/mL G418. IP1 is assayed according to the manufacturer's description (Cisbio Bioassays, France). In brief, the assay is started by substitution of the culture medium by stimulation buffer (Hepes 10 mM, CaCl2) 1 mM, MgCl2 0.5 mM, KCl 4.2 mM, NaCl 146 mM, glucose 5.5 mM and LiCl 50 mM, pH 7.4). Cells are stimulated for 1 h at 37° C., 5% CO2 by addition of the compounds that are diluted in stimulation buffer containing LiCl. Assays are stopped by adding HTRF-conjugates (IP1-d2 and Anti-IP1 cryptate Tb) and lysis buffer, provided by the manufacturer. After an incubation time of 1 h at room temperature plates are measured using an EnVision™, Perkin Elmer. The obtained fluorescence ratios at 665/615 […] are then used to calculate the pEC50 values using Assay Explorer 3.3 Software (Accelrys, Inc.) by interpolation using an IP1 reference curve and subsequent sigmoidal curve fitting allowing for a variable hill slope.

Chain of human GPR40 receptor (O14842 whole entry): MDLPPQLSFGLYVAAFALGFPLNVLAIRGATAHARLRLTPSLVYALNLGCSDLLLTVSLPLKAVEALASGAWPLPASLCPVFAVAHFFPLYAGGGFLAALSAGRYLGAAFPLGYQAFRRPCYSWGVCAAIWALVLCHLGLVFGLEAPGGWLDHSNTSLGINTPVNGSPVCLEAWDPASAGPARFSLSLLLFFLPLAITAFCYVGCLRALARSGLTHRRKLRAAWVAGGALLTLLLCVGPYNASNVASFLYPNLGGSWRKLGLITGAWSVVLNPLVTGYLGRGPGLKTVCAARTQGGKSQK

SMILES	pEC50
Cc1cnc(-c2cc(C)c(-c3cccc(COc4ccc([C@H]5C[C@@H]5C(=O)O)nc4)c3)c(C)c2)nc1 [Example 2, (1S,2S)-2-{5-[2′,6′-Dimethyl-4′-(5-methyl-pyrimidin-2-yl)-biphenyl-3-ylmethoxy]-pyridin-2-yl}-cyclopropanecarboxylic Acid]	8.22
Cc1cc(-c2ccc(=O)n(C)c2)cc(C)c1-c1cccc(COc2ccc([C@H]3C[C@@H]3C(=O)O)nc2)c1 [Example 4, (1S,2S)-2-{5-[2′,6′-Dimethyl-4′-(1-methyl-6-oxo-1,6-dihydro-pyridin-3-yl)-biphenyl-3-ylmethoxy]-pyridin-2-yl}-cyclopropanecarboxylic Acid]	7.82
Cc1cc(-c2cnccn2)cc(C)c1-c1cccc(COc2ccc([C@H]3C[C@@H]3C(=O)O)nc2)c1 [Example 5, (1S,2S)-2-[5-(2′,6′-Dimethyl-4′-pyrazin-2-yl-biphenyl-3-ylmethoxy)-pyridin-2-yl]-cyclopropanecarboxylic Acid]	7.96
Cc1cc(-c2nnn(CC(C)(C)O)n2)cc(C)c1-c1cccc(COc2ccc([C@H]3C[C@@H]3C(=O)O)nc2)c1 [Example 6, (1S,2S)-2-(5-{4′-[2-(2-Hydroxy-2-methyl-propyl)-2H-tetrazol-5-yl]-2′,6′-dimethyl-biphenyl-3-ylmethoxy}-pyridin-2-yl)-cyclopropanecarboxylic Acid]	8.05
Cc1cc(-c2ccnn2C)cc(C)c1-c1cccc(COc2ccc([C@H]3C[C@@H]3C(=O)O)nc2)c1 [Example 7, (1S,2S)-2-{5-[2′,6′-Dimethyl-4′-(2-methyl-2H-pyrazol-3-yl)-biphenyl-3-ylmethoxy]-pyridin-2-yl}-cyclopropanecarboxylic Acid]	7.96
COc1cc(-c2cc(C)c(-c3cccc(COc4ccc([C@H]5C[C@@H]5C(=O)O)nc4)c3)c(C)c2)ccn1 [Example 8, (1S,2S)-2-{5-[4′-(2-Methoxy-pyridin-4-yl)-2′,6′-dimethyl-biphenyl-3-ylmethoxy]-pyridin-2-yl}-cyclopropanecarboxylic Acid]	8.22
CCc1cccc(CC)c1-c1cccc(COc2ccc([C@H]3C[C@@H]3C(=O)O)nc2)c1 [Example 9, (1S,2S)-2-[5-(2′,6′-Diethyl-biphenyl-3-ylmethoxy)-pyridin-2-yl]-cyclopropane-carboxylic Acid]	7.21
Cc1cc(OCC2CCOCC2)cc(C)c1-c1cccc(COc2ccc([C@H]3C[C@@H]3C(=O)O)nc2)c1 [Example 10, (1S,2S)-2-{5-[2′,6′-Dimethyl-4′-(tetrahydro-pyran-4-ylmethoxy)-biphenyl-3-ylmethoxy]-pyridin-2-yl}-cyclopropanecarboxylic Acid]	7.64
Cc1cc(OCC2CCCO2)cc(C)c1-c1cccc(COc2ccc([C@H]3C[C@@H]3C(=O)O)nc2)c1 (stereo partly drawn) [Example 11, (1S,2S)-2-{5-[2′,6′-Dimethyl-4′-(tetrahydro-furan-2-ylmethoxy)-biphenyl-3-ylmethoxy]-pyridin-2-yl}-cyclopropanecarboxylic Acid]	7.49
Cc1cc(O[C@H]2CCOC2)cc(C)c1-c1cccc(COc2ccc([C@H]3C[C@@H]3C(=O)O)nc2)c1 [Example 12, (1S,2S)-2-(5-{2′,6′-Dimethyl-4′-[(S)-(tetrahydrofuran-3-yl)oxy]-biphenyl-3-ylmethoxy}-pyridin-2-yl)-cyclopropanecarboxylic Acid]	7.57
Cc1cc(OC2CCOCC2)cc(C)c1-c1cccc(COc2ccc([C@H]3C[C@@H]3C(=O)O)nc2)c1 [Example 13, (1S,2S)-2-{5-[2′,6′-Dimethyl-4′-(tetrahydro-pyran-4-yloxy)-biphenyl-3-ylmethoxy]-pyridin-2-yl}-cyclopropanecarboxylic Acid]	7.54
COc1cc(C)c(-c2cccc(COc3ccc([C@H]4C[C@@H]4C(=O)O)nc3)c2)c(C)c1 [Example 14, (1S,2S)-2-[5-(4′-Methoxy-2′,6′-dimethyl-biphenyl-3-ylmethoxy)-pyridin-2-yl]-cyclopropanecarboxylic Acid]	7.57
O=C(O)[C@H]1C[C@@H]1c1ccc(OCc2cccc(-c3c(Cl)cccc3Cl)c2)cn1 [Example 15, (1S,2S)-2-[5-(2′,6′-Dichloro-biphenyl-3-ylmethoxy)-pyridin-2-yl]-cyclopropane-carboxylic Acid]	7.62
Cc1cc(OCCCS(C)(=O)=O)cc(C)c1-c1cccc(COc2ccc([C@H]3C[C@@H]3C(=O)O)nc2)c1 [Example 16, (1S,2S)-2-{5-[4′-(3-Methanesulfonyl-propoxy)-2′,6′-dimethyl-biphenyl-3-ylmethoxy]-pyridin-2-yl}-cyclopropanecarboxylic Acid]	7.43
Cc1cc(-c2nnn(C)n2)cc(C)c1-c1ccc(F)c(COc2ccc([C@H]3C[C@@H]3C(=O)O)nc2)c1 [Example 17, (1S,2S)-2-{5-[4-Fluoro-2′,6′-dimethyl-4′-(2-methyl-2H-tetrazol-5-yl)-biphenyl-3-ylmethoxy]-pyridin-2-yl}-cyclopropanecarboxylic Acid]	8.52
Cc1cc(-c2nnn(CC(C)(C)O)n2)cc(C)c1-c1ccc(F)c(COc2ccc([C@H]3C[C@@H]3C(=O)O)nc2)c1 [Example 18, (1S,2S)-2-(5-{4-Fluoro-4′-[2-(2-hydroxy-2-methyl-propyl)-2H-tetrazol-5-yl]-2′,6′-dimethyl-biphenyl-3-ylmethoxy}-pyridin-2-yl)-cyclopropanecarboxylic Acid]	8.22
Cc1cc(-c2cnccn2)cc(C)c1-c1ccc(F)c(COc2ccc([C@H]3C[C@@H]3C(=O)O)nc2)c1 [Example 19, (1S,2S)-2-[5-(4-Fluoro-2′,6′-dimethyl-4′-pyrazin-2-yl-biphenyl-3-ylmethoxy)-pyridin-2-yl]-cyclopropanecarboxylic Acid]	8.15
COc1cc(-c2cc(C)c(-c3ccc(F)c(COc4ccc([C@H]5C[C@@H]5C(=O)O)nc4)c3)c(C)c2)ccn1 [Example 20, (1S,2S)-2-{5-[4-Fluoro-4′-(2-methoxy-pyridin-4-yl)-2′,6′-dimethyl-biphenyl-3-ylmethoxy]-pyridin-2-yl}-cyclopropanecarboxylic Acid]	8.30
Cc1cc(-c2ccnn2C)cc(C)c1-c1ccc(F)c(COc2ccc([C@H]3C[C@@H]3C(=O)O)nc2)c1 [Example 21, (1S,2S)-2-{5-[4-Fluoro-2′,6′-dimethyl-4′-(2-methyl-2H-pyrazol-3-yl)-biphenyl-3-ylmethoxy]-pyridin-2-yl}-cyclopropanecarboxylic Acid]	8.22
Cc1cnc(-c2cc(C)c(-c3ccc(F)c(COc4ccc([C@H]5C[C@@H]5C(=O)O)nc4)c3)c(C)c2)nc1 [Example 22, (1S,2S)-2-{5-[4-Fluoro-2′,6′-dimethyl-4′-(5-methyl-pyrimidin-2-yl)-biphenyl-3-ylmethoxy]-pyridin-2-yl}-cyclopropanecarboxylic Acid]	8.40
Cc1cc(OCC2(C)COC2)cc(C)c1-c1ccc(F)c(COc2ccc([C@H]3C[C@@H]3C(=O)O)nc2)c1 [Example 23, (1S,2S)-2-{5-[4-Fluoro-2′,6′-dimethyl-4′-(3-methyl-oxetan-3-ylmethoxy)-biphenyl-3-ylmethoxy]-pyridin-2-yl}-cyclopropanecarboxylic Acid]	7.62
Cc1cc(C(=O)O)cc(C)c1-c1ccc(F)c(COc2ccc([C@H]3C[C@@H]3C(=O)O)nc2)c1 [Example 24, (1S,2S)-3′-[6-(−2-Carboxy-cyclopropyl)-pyridin-3-yloxymethyl]-4′-fluoro-2,6-dimethyl-biphenyl-4-carboxylic Acid]	5.67
Cc1cc(OCC(C)(C)O)cc(C)c1-c1ccc(F)c(COc2ccc([C@H]3C[C@@H]3C(=O)O)nc2)c1 [Example 25, (1S,2S)-2-{5-[4-Fluoro-4′-(2-hydroxy-2-methyl-propoxy)-2′,6′-dimethyl-biphenyl-3-ylmethoxy]-pyridin-2-yl}-cyclopropanecarboxylic Acid]	7.44
Cc1cc(OCCC(C)(C)O)cc(C)c1-c1cc(COc2ccc([C@H]3C[C@@H]3C(=O)O)nc2)c(F)cc1F [Example 26, (1S,2S)-2-{5-[4,6-Difluoro-4′-(3-hydroxy-3-methyl-butoxy)-2′,6′-dimethyl-biphenyl-3-ylmethoxy]-pyridin-2-yl}-cyclopropanecarboxylic Acid]	7.92
COc1cnc(-c2ccc(-c3cc(COc4ccc([C@H]5C[C@@H]5C(=O)O)nc4)ccc3C(F)(F)F)cc2)nc1 [Example 28, (1S,2S)-2-{5-[4′-(5-Methoxy-pyrimidin-2-yl)-6-trifluoromethyl-biphenyl-3-ylmethoxy]-pyridin-2-yl}-cyclopropanecarboxylic Acid]	8.40
COc1ccc(-c2ccc(-c3cc(COc4ccc([C@H]5C[C@@H]5C(=O)O)nc4)ccc3C(F)(F)F)cc2)nn1 [Example 29, (1S,2S)-2-{5-[4′-(6-Methoxy-pyridazin-3-yl)-6-trifluoromethyl-biphenyl-3-ylmethoxy]-pyridin-2-yl}-cyclopropanecarboxylic Acid]	8.00
CC(C)(O)CCOc1ccc(-c2cc(COc3ccc([C@H]4C[C@@H]4C(=O)O)nc3)ccc2C(F)(F)F)cc1 [Example 30, (1S,2S)-2-{5-[4′-(3-Hydroxy-3-methyl-butoxy)-6-trifluoromethyl-biphenyl-3-ylmethoxy]-pyridin-2-yl}-cyclopropanecarboxylic Acid]	7.92
